The results in this text go back to paper PMC9572546, “Discovery of Novel c-Jun N-Terminal Kinase 1 Inhibitors from Natural Products: Integrating Artificial Intelligence with Structure-Based Virtual Screening and Biological Evaluation” (Molecules, 2022).

This experiment has as its target T1, c-Jun N-terminal kinase 1 (JNK1) (Homo sapiens, UniProt P45983).
T1 construct: gene MAPK8
The experiment is described as follows: LANCE Ultra TR-FRET kinase assay (PerkinElmer), 10-point two-fold dilution. It is filed as biochemical.

T1 sequence (P45983 whole entry): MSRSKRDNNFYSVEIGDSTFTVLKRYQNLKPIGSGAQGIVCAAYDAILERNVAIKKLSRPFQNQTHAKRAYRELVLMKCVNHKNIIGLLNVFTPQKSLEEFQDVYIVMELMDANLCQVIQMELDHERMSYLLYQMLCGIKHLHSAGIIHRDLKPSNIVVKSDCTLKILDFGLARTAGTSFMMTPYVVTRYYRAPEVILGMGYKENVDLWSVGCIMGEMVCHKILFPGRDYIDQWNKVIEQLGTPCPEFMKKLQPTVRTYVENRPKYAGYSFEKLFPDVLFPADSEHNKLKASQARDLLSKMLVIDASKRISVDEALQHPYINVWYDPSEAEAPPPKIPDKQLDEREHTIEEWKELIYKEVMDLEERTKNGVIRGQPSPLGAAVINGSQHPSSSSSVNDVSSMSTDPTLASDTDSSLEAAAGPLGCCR

`COc1cc(-c2cc(=O)c3c(O)cc(O)cc3o2)cc(OC)c1O` [Tricin] registered an IC50 of 17.7 µM.
